Data from article PMC7104226, “Antiepileptic Drug Carbamazepine Binds to a Novel Pocket on the Wnt Receptor Frizzled-8” (Journal of Medicinal Chemistry, 2020).

Target: T1, FZD8 (frizzled-8) cysteine-rich domain, FZD8CRD (Mus musculus, UniProt Q61091)
T1 construct: Extracellular CRD A28-R153, pHL-Avi3, BirA-biotinylated, secreted from HEK293T, immobilized on streptavidin SPR chip
T1 sequence (Q61091 28-153): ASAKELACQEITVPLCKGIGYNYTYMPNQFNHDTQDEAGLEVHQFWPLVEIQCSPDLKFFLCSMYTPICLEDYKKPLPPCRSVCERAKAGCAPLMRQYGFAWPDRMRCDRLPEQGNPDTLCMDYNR
Assay: crystal structure at […] Å (N49E/N152E construct); SPR Kd on biotinylated FZD8CRD (A28-R153)
Assay type: binding

Kd: 17 µM
SMILES: NC(=O)N1c2ccccc2C=Cc2ccccc21 [compound 79, 5H-dibenzo[b,f]azepine-5-carboxamide]
